Molecular target: T1, human mGlu5a receptor (Homo sapiens, UniProt P41594)
T1 construct: expressed in transfected cells
Assay: Intracellular Ca2+ mobilization assay (mGlu5 PAM)
Format: cell-based
Settings: for Emax: HEK293, maximal response in % of the maximal stimulatory effect obtained with saturating concentrations of L-glutamate, HEK-293 human mGlu5a cells, read-out: Eff. (%); for EC50: HEK-293 cells stably transfected with human mGlu5a receptor, L-glutamate added at EC20 (typically around 80 μM) after 10-30 min pre-incubation with test compound, read-out: EC50 (nM) mGlu5PAM
Method: A monoclonal HEK-293 cell line stably transfected with a cDNA encoding for the human mGlu5a receptor was generated; for the work with mGlu5 Positive Allosteric Modulators (PAMs), a cell line with low receptor expression levels and low constitutive receptor activity was selected to allow the differentiation of agonistic versus PAM activity. Cells were cultured according to standard protocols (Freshney, 2000) in Dulbecco's Modified Eagle Medium with high glucose supplemented with 1 mM glutamine, 10% (vol/vol) heat-inactivated bovine calf serum, Penicillin/Streptomycin, 50 μg/ml hygromycin and 15 μg/ml blasticidin (all cell culture reagents and antibiotics from Invitrogen, Basel, Switzerland).
About 24 hrs before an experiment, 5×10^4 cells/well were seeded in poly-D-lysine coated, black/clear-bottomed 96-well plates. The cells were loaded with 2.5 μM Fluo-4AM in loading buffer (1×HBSS, 20 mM HEPES) for 1 hr at 37° C. and washed five times with loading buffer. The cells were transferred into a Functional Drug Screening System 7000 (Hamamatsu, Paris, France), and 11 half logarithmic serial dilutions of test compound at 37° C. were added and the cells were incubated for 10-30 min with on-line recording of fluorescence. Following this pre-incubation step, the agonist L-glutamate was added to the cells at a concentration corresponding to EC20 (typically around 80 μM) with on-line recording of fluorescence; in order to account for day-to-day variations in the responsiveness of cells, the EC20 of glutamate was determined immediately ahead of each experiment by recording of a full dose-response curve of glutamate.
Responses were measured as peak increase in fluorescence minus basal (i.e. fluorescence without addition of L-glutamate), normalized to the maximal stimulatory effect obtained with saturating concentrations of L-glutamate. Graphs were plotted with the % maximal stimulatory using XLfit, a curve fitting program that iteratively plots the data using Levenburg Marquardt algorithm. The single site competition analysis equation used was y=A+((B−A)/(1+((x/C)D))), where y is the % maximal stimulatory effect, A is the minimum y, B is the maximum y, C is the EC50, x is the log 10 of the concentration of the competing compound and D is the slope of the curve (the Hill Coefficient). From these curves the EC50 (concentration at which half maximal stimulation was achieved), the Hill coefficient as well as the maximal response in % of the maximal stimulatory effect obtained with saturating concentrations of L-glutamate were calculated.
A depression of the signal observed after addition of the EC20 concentration of L-glutamate was indicative of an inhibitory activity of the test compound.

T1 sequence (P41594 21-1180 isoform P41594-2 limits assumed): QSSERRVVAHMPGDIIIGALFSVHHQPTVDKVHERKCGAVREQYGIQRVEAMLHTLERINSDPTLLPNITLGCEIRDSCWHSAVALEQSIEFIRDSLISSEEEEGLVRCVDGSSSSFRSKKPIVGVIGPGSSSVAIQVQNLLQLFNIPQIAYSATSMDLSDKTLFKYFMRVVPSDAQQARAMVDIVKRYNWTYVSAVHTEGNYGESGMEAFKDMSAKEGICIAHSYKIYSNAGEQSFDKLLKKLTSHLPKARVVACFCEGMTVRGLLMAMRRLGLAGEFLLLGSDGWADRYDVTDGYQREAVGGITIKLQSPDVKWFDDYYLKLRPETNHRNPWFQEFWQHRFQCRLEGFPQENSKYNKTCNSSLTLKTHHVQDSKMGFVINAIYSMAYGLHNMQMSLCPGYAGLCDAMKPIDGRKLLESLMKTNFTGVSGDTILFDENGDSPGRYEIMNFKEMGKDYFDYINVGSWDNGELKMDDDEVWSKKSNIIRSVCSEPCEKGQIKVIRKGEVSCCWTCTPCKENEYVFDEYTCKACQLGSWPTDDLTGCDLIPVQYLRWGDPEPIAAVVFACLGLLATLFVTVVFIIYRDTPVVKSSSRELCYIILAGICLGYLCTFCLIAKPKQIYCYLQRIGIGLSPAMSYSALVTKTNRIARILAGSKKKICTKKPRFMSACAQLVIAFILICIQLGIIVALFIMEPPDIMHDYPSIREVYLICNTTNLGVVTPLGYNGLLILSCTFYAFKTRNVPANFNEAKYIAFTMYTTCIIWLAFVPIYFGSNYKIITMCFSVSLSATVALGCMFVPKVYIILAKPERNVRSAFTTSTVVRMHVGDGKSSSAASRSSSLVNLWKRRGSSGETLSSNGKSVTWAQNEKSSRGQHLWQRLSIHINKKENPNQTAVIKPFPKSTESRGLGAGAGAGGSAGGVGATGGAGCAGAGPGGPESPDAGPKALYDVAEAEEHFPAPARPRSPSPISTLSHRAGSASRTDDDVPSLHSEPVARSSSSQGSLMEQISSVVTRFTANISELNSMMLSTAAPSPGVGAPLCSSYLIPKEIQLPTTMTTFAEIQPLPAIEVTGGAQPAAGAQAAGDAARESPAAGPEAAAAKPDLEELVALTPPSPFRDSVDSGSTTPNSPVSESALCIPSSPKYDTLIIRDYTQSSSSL

Structure (SMILES) | Emax [%] | EC50 [nM]
CC(C)(C)NC(=O)c1ncc(C#Cc2cccc(F)c2)cn1 [Example 10, 5-(3-Fluoro-phenylethynyl)-pyrimidine-2-carboxylic Acid tert-butylamide] | 81 | 36
CN(C(=O)c1ccc(C#Cc2cccc(F)c2)cn1)C1(C)CC1 [Example 31, 5-(3-Fluoro-phenylethynyl)-pyridine-2-carboxylic Acid methyl-(1-methyl-cyclopropyl)-amide] | 43 | 17
CN(C(=O)c1ncc(C#Cc2cc(F)ccc2F)cn1)C(C)(C)C [Example 15, 5-(2,5-Difluoro-phenylethynyl)-pyrimidine-2-carboxylic Acid tert-butyl-methyl-amide] | 32 | 35
CC1(C)CC(O)CCN1C(=O)c1ncc(C#Cc2cc(F)ccc2F)cn1 (racemic) [Example 66, (RS)-[5-(2,5-Difluoro-phenylethynyl)-pyrimidin-2-yl]-(4-hydroxy-2,2-dimethyl-piperidin-1-yl)-methanone] | 49 | 101
Cc1cc(C#Cc2ccc(F)cc2)cnc1C(=O)N(C)C(C)(C)C [Example 18, 5-(4-Fluoro-phenylethynyl)-3-methyl-pyridine-2-carboxylic Acid tert-butyl-methyl-amide] | 71 | 76
CN(C(=O)c1ccc(C#Cc2cncc(Cl)c2)cn1)C(C)(C)C(F)(F)F [Example 55, 5-(5-Chloro-pyridin-3-ylethynyl)-pyridine-2-carboxylic Acid methyl-(2,2,2-trifluoro-1,1-dimethyl-ethyl)-amide] | 63 | 37
O=C(c1ncc(C#Cc2ccccc2)cn1)N1CC(F)(F)C1 [Example 45, (3,3-Difluoro-azetidin-1-yl)-(5-phenylethynyl-pyrimidin-2-yl)-methanone] | 51 | 62
CN(C(=O)c1ncc(C#Cc2ccccc2)cc1F)C1(C)COC1 [Example 50, 3-Fluoro-5-phenylethynyl-pyridine-2-carboxylic Acid methyl-(3-methyl-oxetan-3-yl)-amide] | 67 | 40
CC1(C)CCCN(C(=O)c2ncc(C#Cc3ccccc3)cn2)C1 [Example 46, (3,3-Dimethyl-piperidin-1-yl)-(5-phenylethynyl-pyrimidin-2-yl)-methanone] | 59 | 50
CN(C(=O)c1ccc(C#Cc2cncc(F)c2)cn1)C(C)(C)C [Example 8, 5-(5-Fluoro-pyridin-3-ylethynyl)-pyridine-2-carboxylic Acid tert-butyl-methyl-amide] | 79 | 62
CC(NC(=O)c1ccc(C#Cc2cccc(Cl)c2)cn1)C(F)(F)F (racemic) [Example 61, (RS)-5-(3-Chloro-phenylethynyl)-pyridine-2-carboxylic Acid (2,2,2-trifluoro-1-methyl-ethyl)-amide] | 83 | 61
CC(C)(NC(=O)c1ccc(C#Cc2ccnc(Cl)c2)cn1)C(F)(F)F [Example 54, 5-(2-Chloro-pyridin-4-ylethynyl)-pyridine-2-carboxylic Acid (2,2,2-trifluoro-1,1-dimethyl-ethyl)-amide] | 80 | 37
CN(C(=O)c1ccc(C#Cc2cccc(Cl)c2)cn1)C1(C(F)(F)F)CC1 [Example 33, 5-(3-Chloro-phenylethynyl)-pyridine-2-carboxylic Acid methyl-(1-trifluoromethyl-cyclopropyl)-amide] | 37 | 33
CN(C(=O)c1ncc(C#Cc2ccc(F)cc2)cc1F)C(C)(C)C [Example 22, 3-Fluoro-5-(4-fluoro-phenylethynyl)-pyridine-2-carboxylic Acid tert-butyl-methyl-amide] | 65 | 32
CN(C(=O)c1ccc(C#Cc2ccccc2)cn1)C(C)(C)C [Example 2, 5-Phenylethynyl-pyridine-2-carboxylic Acid tert-butyl-methyl-amide] | 87 | 19
O=C(NC1COC1)c1ccc(C#Cc2cccc(F)c2)cn1 [Example 26, 5-(3-Fluoro-phenylethynyl)-pyridine-2-carboxylic Acid oxetan-3-ylamide] | 80 | 43
CN(C(=O)c1ccc(C#Cc2cccc(F)c2)cn1)C1(C)COC1 [Example 27, 5-(3-Fluoro-phenylethynyl)-pyridine-2-carboxylic Acid methyl-(3-methyl-oxetan-3-yl)-amide] | 53 | 24
CC1(C)CN(C(=O)c2ccc(C#Cc3cc(F)ccc3F)cn2)CCO1 [Example 36, [5-(2,5-Difluoro-phenylethynyl)-pyridin-2-yl]-(2,2-dimethyl-morpholin-4-yl)-methanone] | 44 | 56

Continued by falling EC50, values first:

Emax [%] | EC50 [nM] | Structure (SMILES)
37 | 93 | CC1(C)CN(C(=O)c2ccc(C#Cc3ccc(F)cc3)cn2)CCC1O (racemic) [Example 40, (RS)-[5-(4-Fluoro-phenylethynyl)-pyridin-2-yl]-(4-hydroxy-3,3-dimethyl-piperidin-1-yl)-methanone]
57 | 66 | CC1(C)CC(O)CCN1C(=O)c1ncc(C#Cc2ccccc2)cn1 (racemic) [Example 47, (RS)-(4-Hydroxy-2,2-dimethyl-piperidin-1-yl)-(5-phenylethynyl-pyrimidin-2-yl)-methanone]
69 | 66 | CC(N(C)C(=O)c1ncc(C#Cc2ccccc2)cc1F)C(F)(F)F (racemic) [Example 51, (RS)-3-Fluoro-5-phenylethynyl-pyridine-2-carboxylic Acid methyl-(2,2,2-trifluoro-1-methyl-ethyl)-amide]
30 | 57 | CC(C)(NC(=O)c1ncc(C#Cc2ccnc(Cl)c2)cn1)C(F)(F)F [Example 58, 5-(2-Chloro-pyridin-4-ylethynyl)-pyrimidine-2-carboxylic Acid (2,2,2-trifluoro-1,1-dimethyl-ethyl)-amide]
55 | 49 | CC1(C)CN(C(=O)c2ncc(C#Cc3ccccc3)cn2)CCC1O (racemic) [Example 48, (RS)-(4-Hydroxy-3,3-dimethyl-piperidin-1-yl)-(5-phenylethynyl-pyrimidin-2-yl)-methanone]
54 | 46 | CC1(C)CC(O)CCN1C(=O)c1ncc(C#Cc2cc(F)ccc2F)cc1F (racemic) [Example 68, (RS)-[5-(2,5-Difluoro-phenylethynyl)-3-fluoro-pyridin-2-yl]-(4-hydroxy-2,2-dimethyl-piperidin-1-yl)-methanone]
58 | 35 | CC1(C)CN(C(=O)c2ccc(C#Cc3ccccc3)cn2)CCC1O (racemic) [Example 39, (RS)-(4-Hydroxy-3,3-dimethyl-piperidin-1-yl)-(5-phenylethynyl-pyridin-2-yl)-methanone]
96 | 34 | CN(C(=O)c1ncc(C#Cc2ccccc2)cc1C#N)C(C)(C)C [Example 52, 3-Cyano-5-phenylethynyl-pyridine-2-carboxylic Acid tert-butyl-methyl-amide]
42 | 34 | CC1(C)CC(O)CCN1C(=O)c1ccc(C#Cc2cc(F)ccc2F)cn1 (racemic) [Example 64, (RS)-[5-(2,5-Difluoro-phenylethynyl)-pyridin-2-yl]-(4-hydroxy-2,2-dimethyl-piperidin-1-yl)-methanone]
69 | 34 | CN(C(=O)c1ncc(C#Cc2ccc(F)cc2)cn1)C(C)(C)C [Example 11, 5-(4-Fluoro-phenylethynyl)-pyrimidine-2-carboxylic Acid tert-butyl-methyl-amide]
56 | 32 | CN(C(=O)c1ccc(C#Cc2cccc(F)c2)cn1)C1CCC1 [Example 25, 5-(3-Fluoro-phenylethynyl)-pyridine-2-carboxylic Acid cyclobutyl-methyl-amide]
45 | 21 | CN(C(=O)c1ccc(C#Cc2cc(F)ccc2F)cn1)C1(C)COC1 [Example 29, 5-(2,5-Difluoro-phenylethynyl)-pyridine-2-carboxylic Acid methyl-(3-methyl-oxetan-3-yl)-amide]
42 | 12 | CN(C(=O)c1ccc(C#Cc2cc(F)ccc2F)cn1)C(C)(C)C [Example 5, 5-(2,5-Difluoro-phenylethynyl)-pyridine-2-carboxylic Acid tert-butyl-methyl-amide]

Source: patent publication US8772300B2, “Phenyl or pyridinyl-ethynyl derivatives” (Hoffmann-La Roche Inc., priority 2011, dated 2014)
